One assay addresses CaMKIIδ (Homo sapiens, UniProt Q13557). The conditions noted are these: cited from earlier work.
Assay [1] concerns ovalbumin-sensitized C6B2 mice (asthma model). As to the kind of experiment: Ovalbumin-sensitized mouse asthma model, intranasal KN-93. In kind it is in vivo. The conditions noted are these: for airway resistance (Flexivent) on Methacholine challenge: KN93 100 mM intranasal during ovalbumin inhalations, at 50 and 100 μg/ml Methacholine, p<0.05, vs untreated; for Bronchoalveolar lavage eosinophils: KN93 intranasal, compared with untreated control mice. On the procedure: FIG. 4. Effects of inhaled KN-93 on asthma. (A) C6B2 mice were sensitized by two i.p. injections of ovalbumin, followed by three 30 min inhalations of ovalbumin in the presence or absence of the CaMKII inhibitor KN93 (100 μM) intranasal. Airway reactivity was determined by Methacholine challenge using the Flexivent-measured airway resistance as the readout. (B) Bronchoalveolar lavage eosinophils in mice treated with KN 93 compared with untreated control mice.
In order to test the concept that CaMKII inhibition can reduce asthma symptoms, a validated asthma model was utilized. This model induces airway inflammation and hyper-reactivity by intra-peritoneal sensitization and inhalational challenge with the experimental allergen, ovalbumin. The “asthmatic” mice are then characterized by a graded inhalational challenge protocol using aerosolized methacholine. (See Jain et al., 2003). This approach is similar to that used in humans with clinical asthma.
C6B2 mice were sensitized by two i.p. injections of ovalbumin, followed by three 30 min inhalations of ovalbumin in the presence or absence of the CaMKII inhibitor KN93 (100 mM) intranasal. Airway reactivity was determined by Methacholine challenge using the Flexivent-measured airway resistance as the readout. […] (* p<0.05, n=4 per group) (FIG. 4A). Bronchoalveolar lavage eosinophils (a measure of allergic airway inflammation) were reduced in mice treated with KN 93 compared with untreated control mice (FIG. 4B).

Like-named read-outs stand apart in the source and are kept apart here.

Sequence of CaMKIIδ (Q13557 whole entry): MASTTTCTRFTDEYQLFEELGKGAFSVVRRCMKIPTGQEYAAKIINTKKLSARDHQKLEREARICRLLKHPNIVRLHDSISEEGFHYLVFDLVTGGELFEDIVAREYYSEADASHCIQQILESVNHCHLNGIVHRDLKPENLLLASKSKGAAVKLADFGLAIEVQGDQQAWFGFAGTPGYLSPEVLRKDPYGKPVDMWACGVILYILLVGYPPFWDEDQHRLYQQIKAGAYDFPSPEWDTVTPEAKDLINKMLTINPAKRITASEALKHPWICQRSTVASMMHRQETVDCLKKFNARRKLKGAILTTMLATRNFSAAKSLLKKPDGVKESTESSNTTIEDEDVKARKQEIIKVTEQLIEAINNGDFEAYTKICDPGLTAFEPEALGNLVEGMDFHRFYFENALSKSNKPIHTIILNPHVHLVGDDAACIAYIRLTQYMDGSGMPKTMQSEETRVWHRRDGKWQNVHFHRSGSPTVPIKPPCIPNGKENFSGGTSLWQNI

For `NCCCn1cc(C2=C(c3csc4ccccc34)C(=O)NC2=O)c2ccccc21` [Compound 2], the concentration for half-maximal inhibition (IC50) – broadly, the midpoint of a concentration-inhibition curve – on CaMKIIδ (old, read-out: IC50 (μM) old) was < 0.039 µM.
As for `CC(C)(C)OC(=O)NCCCn1cc(C2=C(c3csc4ccccc34)C(=O)NC2=O)c2ccccc21` [Compound 13b], on CaMKIIδ, the half-maximal inhibitory concentration (IC50) was > 20 µM.
In the case of `CC(C)(C)OC(=O)NCCCn1cc(C2=C(c3ccccc3)C(=O)NC2=O)c2ccccc21` [Compound 13g], on CaMKIIδ, the half-inhibitory concentration (IC50) was > 20 µM.
For `CC(C)(C)OC(=O)NCCCn1cc(C2=C(c3cccs3)C(=O)NC2=O)c2ccccc21` [Compound 13l], the IC50 at CaMKIIδ was > 20 µM.
In the case of `NCCCn1cc(C2=C(c3ccc4ccccc4n3)C(=O)NC2=O)c2ccccc21` [Compound 14f], the IC50 on CaMKIIδ was > 20 µM.
For the molecule `CN1C(=O)C(c2c[nH]c3ccc(Br)cc23)=C(c2cn(CCCN)c3ccccc23)C1=O` [Compound 16t], on CaMKIIδ, the 50% inhibitory concentration (IC50) is > 20 µM.
Take `COc1ccc(S(=O)(=O)N(CCO)c2ccccc2CN(C)C/C=C/c2ccc(Cl)cc2)cc1` [KN-93]: the “airway resistance (Flexivent) on Methacholine challenge” value in assay [1] is given as “reduced airway resistance measurements”; in assay [1] (listed as KN93), “significant reduction”. The Bronchoalveolar lavage eosinophils result is recorded as “reduced eosinophils” in assay [1] and “reduced” in assay [1] (listed as KN 93).

The values above are taken from patent publication US8440656B2, “Methods of treating pulmonary diseases and disorders by modulating calcium/calmodulin dependent protein kinase II activity” (University of Iowa Research Foundation, priority 2009, dated 2013).
